Measurements taken from article PMC12864978, “Covalent modification of a glutamic acid inspired by HaloTag technology” (Nature Communications, 2026).

Legend:
[1] = molecular target: T1, PDEδ in the presence of Arl2•GppNHp (Homo sapiens, UniProt O43924); assay: Kinetics of covalent modification of PDEδ by MALDI in the presence of Arl2•GppNHp; assay type: binding; conditions: PDEδ: Arl2•GppNHp = 1:1, 3 eq. of 6a
T1 construct: His tag; made in house; host or cells: Escherichia coli Rosetta (BL21DE3), pET plasmids
From the text: Data are presented as mean ± s.e.m.
The solution was briefly centrifuged before a sample was taken at the designated time for analysis by MALDI. […] Mass spectra were obtained over the m/z range 15,000–25,000 using a Bruker UltrafleXtreme XIAL DI-TOF/TOF mass spectrometer. Percentages of covalent adduct formation were estimated by the relative intensity of the respective peaks in MALDI spectra.

[2] = system: mTORC1 substrate S6P in PA-TU-8902 cells; conditions: 10 µM
Experimental: (§4) Relative band intensities were quantified using Image Lab (BIO-RAD).
Cells were treated with 10 µM
Cells were then washed twice

[3] = molecular target: PDEδ (Homo sapiens, UniProt O43924); assay: In-cell covalent modification of PDEδ (immunoblot); conditions: 2 h
[4] = Compound stability in aqueous buffers; assay type: physicochemical
Experimental: (§1) Compound (1 mM) was incubated with the respective buffers (HEPES 20 mM, 150 mM NaCl, pH = 7.5; 0.2 M sodium acetate buffer, pH = 5.6; 0.2 M sodium citrate buffer, pH = 6.2; 0.2 M potassium phosphate buffer, pH = 7.4, 1 mM EDTA, with or without 10 mM GSH), with 1% DMSO adjusted for all conditions. […] Per cent (%) compound remaining in the solution was estimated by the ratio of areas under the curve, and data plotted were fitted to pseudo-1st kinetics in the calculation of rate constants (k) and half-lives (t1/2), where k is the negative slope of a linear regression of In (% compound remaining) over time. Half-lives (t1/2) in respective buffers and half-lives for GSH adduct formation (t1/2 GSH) were calculated with the following equations:1 t1/2=In2/k 2 kGSH=ktotalconsumptioninphosphatebufferinpresenceofGSH−k(phosphatebufferinabsenceofGSH) 3 t1/2GSH=In2/k(GSH) […]
(§2) a, Percentage (%) of compound remaining was monitored by HPLC-MS and data was fitted to pseudo-first kinetics in calculation of rate constants (k) and half-lives (t1/2) in respective buffers, where k is the negative slope of a linear regression of In (% compound remaining) over time and t 1/2 = In2/k. Initial […]
(§3) Initial GSH concentration =

[5] = system: HAP1 PDEδ knockout cells; assay: Relative growth after 72 h; assay type: cell-based; conditions: 0 - 50 µM
Experimental: Real-time cell analysis (RTCA) was conducted using an Incucyte S3 live-cell analysis system (Sartorius AG, Germany). […] Following attachment overnight, the medium was replaced with fresh medium containing test compounds, with all conditions adjusted to contain 0.5% DMSO. […] Phase-contrast images (2 images per well) were automatically captured at 2-h intervals until control wells (DMSO-treated) reached full confluency. Cell growth was quantified using the instrument’s integrated Basic Analyser module by applying a confluence mask to calculate the percentage of phase area confluence. […] Dose-response curves were generated and fitted via four-parameter variable slope nonlinear regression to determine cellular IC₅₀ values.

[6] = molecular target: PDEδ in Jurkat cell lysates (Homo sapiens, UniProt O43924); assay: In-lysate covalent modification of PDEδ (anti-PDEδ immunoblot band shift)
From the text: as §4

[7] = system: DNA in Jurkat cells; assay: Comet assay (DNA alkylation); conditions: 10 µM
Experimental: assay.5 % DNA in tail was estimated OpenComet (v1.3) plugin in Image J. Jurkat cells were treated
30 min before subjecting to single -cell gel electrophoresis. Data were plotted as mean ± s.d.,
representative of biological replicates n = 3.
comet images for each condition were shown.

[8] = system: Rheb localisation in PA-TU-8902 cells; assay: Immunofluorescence staining of Rheb; assay type: cell-based, human; conditions: 5 µM, overnight
Experimental: Immunostaining: compound-treated PA-TU-8902 cells were washed once with cold PBS, fixed with 3.7% paraformaldehyde in PBS by incubation at room temperature for 10 min and permeabilised with 0.3% Triton X-100 in PBS by incubation at room temperature for 15 min. […] After washing with PBS-T three times, PBS-incubated cells were imaged with Observer Z1 (Carl Zeiss, Germany) with a 63× oil objective.

[9] = Mouse liver microsomal stability; assay type: in vitro ADME
From the text: plotted as mean ± standard deviation, representative of 3 technical replicates ( N = 3). Unpaired, two-
Data were plotted as mean ± standard deviation, representative of 3 technical replicates in the presence

[10] = GSH adduct formation (stability in the presence of GSH); assay type: physicochemical; conditions: phosphate buffer with 10 mM GSH; 10-fold excess of GSH at 10 mM, phosphate buffer pH 7.4, 37 °C; read-out: half-life for GSH adduct formation t1/2 GSH (converted)
Experimental: as §1, §2, §3

Chain of PDEδ in Jurkat cell lysates (O43924 whole entry): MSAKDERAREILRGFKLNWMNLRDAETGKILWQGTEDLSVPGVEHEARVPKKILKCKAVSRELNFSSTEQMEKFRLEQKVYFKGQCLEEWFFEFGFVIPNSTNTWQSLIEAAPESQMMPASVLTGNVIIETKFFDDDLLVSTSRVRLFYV
T1 sequence (O43924 whole entry): as above
Chain of PDEδ (O43924 whole entry): as above

In the case of `Cc1ccc(-n2nc3c(=O)n(CCCCS(=O)(=O)N(CCc4cccc(CCBr)c4)CC4CCNCC4)nc(C)c3c2C)cc1` [6a], the “rate of covalent PDEδ modification in the presence of Arl2•GppNHp” value [1] is reported as “comparable rate”, the S6P phosphorylation [2] is reported as “reduced S6P phosphorylation in a time-dependent manner” and the “in-cell covalent modification of PDEδ” value [3] is reported as “covalent binding of DeltaTag (6a) to PDEδ within 2 h”. The half-life at 1 mM ([4]; HEPES buffer, pH 7.5, 37 °C, compound 1 mM, read-out: half-life t1/2 in HEPES buffer (converted)) was 20 days, the half-life at 1 mM ([4]; acetate buffer, pH 5.6, 37 °C, read-out: half-life t1/2 in acetate buffer (converted)) was 6.04 days and the “growth impairment of HAP1 PDEδ knockout cells compared to HAP1 wild type cells” value [5] was “less pronounced”. The “in-lysate covalent modification of PDEδ on anti-PDEδ immunoblot” value ([6]; 10 µM for 2 h) was “upward shift of the band indicates covalent binding”, the “Estimated % PDEδ labelling” value ([6]; 10 µM, 15 min) was 33% and the “Estimated % PDEδ labelling” value ([6]; 10 µM, 15 min, listed as DeltaTag) was “approximately 33%”. For the same compound, the “Estimated % PDEδ labelling” value ([6]; 10 µM, 30 min) was 55%, the “Estimated % PDEδ labelling” value ([6]; 10 µM, 60 min) was 60% and the “time to estimated full labelling of PDEδ” value ([6]; 50 µg cell lysates, 10 µM) was no more than 2 h. The “off-target effects such as DNA alkylation (Comet assay)” value [7] was “not observed”, the “cellular Rheb distribution” value [8] was “visible and sustained redistribution of Rheb to endomembranes” and the CLhep predicted ([9]; liver microsomes, translated from intrinsic clearance, mouse, read-out: in vivo clearance (simplified well-stirred model) (converted)) was roughly 66.7 mL/min/kg. The “microsomal stability in the absence of co-factor NADPH” value ([9]; mouse liver microsomes) was “metabolically stable”, the microsomal CLint ([9]; mouse liver microsomes 0.5 mg/ml, + NADPH, read-out: intrinsic clearance) was 117 µL/min/mg and the “time to almost complete metabolism” value ([9]; mouse, liver microsomes, + NADPH) was no more than 50 min. The half-life ([9]; mouse, liver microsomes, + NADPH, read-out: half-life T1/2 in mouse liver microsomes) was 0.00819 days and the half-life at 1 mM [10] was 43.1 days.
